Experimental data taken from PubChem BioAssay AID248 (DTP/NCI, 2004).
Where “and” joins values, the source holds several entries; their conditions need not be identical. Equal values may be shown once. Toxic doses and inconclusive results are not listed. Cut-off read from the data, not from the text of the source: active = T/C of 150% or more; inactive = T/C below 125%.

Test system: L1210 leukemia ip in BDF1 mice, survival T/C
Test: NCI In Vivo Anticancer Drug Screen. Data for tumor model L1210 Leukemia (intraperitoneal) in B6D2F1 (BDF1) mice
Details: endpoint: mean survival time, higher = longer survival
How it was run: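 Each compound was tested against a transplantable tumor grown in mice. The endpoint was survival, with treated animals benchmarked against vehicle controls as a simple ratio.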

[1] = dose: 100.0 mg/kg/injection, schedule: Q04DX003 (ip), vehicle: saline with Tween-80
[2] = dose: 100.0 mg/kg/injection, schedule: Q01DX009 (ip), vehicle: Klucel (hydroxypropylcellulose) (HPC)
[3] = dose: 100.0 mg/kg/injection, schedule: Q04DX003 (ip), vehicle: Klucel (hydroxypropylcellulose) (HPC)
[4] = dose: 200.0 mg/kg/injection, schedule: Q01DX009 (ip), vehicle: Klucel (hydroxypropylcellulose) (HPC)
[5] = dose: 200.0 mg/kg/injection, schedule: Q04DX003 (ip), vehicle: Klucel (hydroxypropylcellulose) (HPC)
[6] = dose: 400.0 mg/kg/injection, schedule: Q01DX009 (ip), vehicle: Klucel (hydroxypropylcellulose) (HPC)
[7] = dose: 400.0 mg/kg/injection, schedule: Q04DX003 (ip), vehicle: Klucel (hydroxypropylcellulose) (HPC)
[8] = dose: 100.0 mg/kg/injection, schedule: Q01DX001 (ip), vehicle: other
[9] = dose: 200.0 mg/kg/injection, schedule: Q01DX001 (ip), vehicle: other
[10] = dose: 400.0 mg/kg/injection, schedule: Q01DX001 (ip), vehicle: other
[11] = dose: 200.0 mg/kg/injection, schedule: Q04DX003 (ip), vehicle: saline with Tween-80
[12] = dose: 100.0 mg/kg/injection, schedule: Q01DX001 (ip), vehicle: saline
[13] = dose: 200.0 mg/kg/injection, schedule: Q01DX001 (ip), vehicle: saline
[14] = dose: 400.0 mg/kg/injection, schedule: Q01DX001 (ip), vehicle: saline
[15] = dose: 100.0 mg/kg/injection, schedule: Q04DX002 (ip), vehicle: saline with Tween-80
[16] = dose: 200.0 mg/kg/injection, schedule: Q04DX002 (ip), vehicle: saline with Tween-80
[17] = dose: 100.0 mg/kg/injection, schedule: Q04DX003 (ip), vehicle: saline
[18] = dose: 200.0 mg/kg/injection, schedule: Q04DX003 (ip), vehicle: saline
[19] = dose: 100.0 mg/kg/injection, schedule: Q01DX001 (ip), vehicle: saline with Tween-80
[20] = dose: 200.0 mg/kg/injection, schedule: Q01DX001 (ip), vehicle: saline with Tween-80
[21] = dose: 400.0 mg/kg/injection, schedule: Q01DX001 (ip), vehicle: saline with Tween-80
[22] = dose: 400.0 mg/kg/injection, schedule: Q04DX003 (ip), vehicle: saline
[23] = dose: 100.0 mg/kg/injection, schedule: Q01DX001 (ip), vehicle: carboxymethylcellulose (CMC)
[24] = dose: 200.0 mg/kg/injection, schedule: Q01DX001 (ip), vehicle: carboxymethylcellulose (CMC)
[25] = dose: 400.0 mg/kg/injection, schedule: Q01DX001 (ip), vehicle: carboxymethylcellulose (CMC)

Measured: T/C

CCOC(=O)c1cc2ccccc2oc1=O
inactive: dose: 25.0 mg/kg/injection, schedule: Q01DX009 (ip), vehicle: saline with Tween-80 102 % of control | dose: 25.0 mg/kg/injection, schedule: Q04DX003 (ip), vehicle: saline with Tween-80 103 % of control | dose: 50.0 mg/kg/injection, schedule: Q01DX001 (ip), vehicle: other 95 % of control | dose: 50.0 mg/kg/injection, schedule: Q01DX009 (ip), vehicle: saline with Tween-80 98 % of control | dose: 50.0 mg/kg/injection, schedule: Q04DX003 (ip), vehicle: saline with Tween-80 98 % of control and 89 % of control | dose: 100.0 mg/kg/injection, schedule: Q01DX009 (ip), vehicle: saline with Tween-80 94 % of control | [1] 100 % of control and 103 % of control

NC(CSS(=O)(=O)O)=NCc1ccncc1
inactive: dose: 25.0 mg/kg/injection, schedule: Q04DX002 (ip), vehicle: saline 95 % of control | dose: 50.0 mg/kg/injection, schedule: Q04DX002 (ip), vehicle: saline 103 % of control | dose: 100.0 mg/kg/injection, schedule: Q04DX002 (ip), vehicle: saline 123 % of control

CCCC#C/C=C1/C=CC(=O)O1
inactive: dose: 75.0 mg/kg/injection, schedule: Q01DX001 (ip), vehicle: carboxymethylcellulose (CMC) 94 % of control | dose: 150.0 mg/kg/injection, schedule: Q01DX001 (ip), vehicle: carboxymethylcellulose (CMC) 97 % of control

Cc1ccc(CNc2cccc([N+](=O)[O-])c2)cc1
inactive: [2] 98 % of control | [3] 98 % of control | [4] 93 % of control | [5] 96 % of control | [6] 102 % of control | [7] 101 % of control

CNC(=O)O/N=C(C)/C(C)=N/OC(=O)NC
inactive: [8] 93 % of control | [9] 87 % of control | [10] 87 % of control

CC(C)(C)CC(C)(C)c1ccc(OCCOc2ccc(NS(=O)(=O)c3ccc(N)c([N+](=O)[O-])c3)cc2)cc1
inactive: [1] 94 % of control | [11] 92 % of control

NC(=O)N1CCCCC1
inactive: [12] 102 % of control | [13] 98 % of control | [14] 102 % of control

[Se]c1ccnc([Se])n1
inactive: [1] 89 % of control | [11] 94 % of control

CCOC(=O)CCC(C)C(C)=O (stereo not given)
inactive: dose: 50.0 mg/kg/injection, schedule: Q04DX002 (ip), vehicle: saline with Tween-80 108 % of control | [12] 109 % of control | [15] 103 % of control | [13] 98 % of control | [16] 108 % of control | [14] 98 % of control

c1ccc2c(c1)ccc1c3ccc4ccccc4c3[nH]c21
inactive: [12] 95 % of control | [13] 90 % of control | [14] 94 % of control

c1ccc2c(c1)[nH]c1nc3ccncc3nc12
inactive: [17] 103 % of control | [18] 94 % of control

Fc1c(F)c(F)c(-c2c(F)c(F)c(-c3c(F)c(F)c(-c4c(F)c(F)c(F)c(F)c4F)c(F)c3F)c(F)c2F)c(F)c1F
inactive: [19] 88 % of control | [20] 88 % of control | [21] 88 % of control

S=c1c2[nH]cnc2ncn1C1CCCCC1
inactive: dose: 4.4 mg/kg/injection, schedule: Q01DX009 (ip), vehicle: saline with Tween-80 96 % of control | dose: 6.7 mg/kg/injection, schedule: Q01DX009 (ip), vehicle: saline with Tween-80 102 % of control | dose: 10.0 mg/kg/injection, schedule: Q01DX009 (ip), vehicle: saline with Tween-80 90 % of control | dose: 15.0 mg/kg/injection, schedule: Q01DX009 (ip), vehicle: saline with Tween-80 95 % of control

CCCCCCCCCCCC(=O)NN
inactive: dose: 18.8 mg/kg/injection, schedule: Q01DX009 (ip), vehicle: carboxymethylcellulose (CMC) 105 % of control | dose: 37.5 mg/kg/injection, schedule: Q01DX009 (ip), vehicle: carboxymethylcellulose (CMC) 96 % of control | dose: 75.0 mg/kg/injection, schedule: Q01DX009 (ip), vehicle: carboxymethylcellulose (CMC) 109 % of control and 114 % of control | [12] 98 % of control | [13] 104 % of control | [14] 106 % of control

CC(C)C(NC(=O)OCc1ccccc1)C(=O)OCc1ccc([N+](=O)[O-])cc1 (stereo not given)
inactive: [8] 90 % of control | [9] 94 % of control | [10] 90 % of control

CC(O)(CCl)C(=O)O (stereo not given)
inactive: [17] 96 % of control | [18] 98 % of control | [22] 96 % of control

C[CH2][Sn]([CH2]c1ccccc1)([c]1ccccc1)[c]1ccccc1
inactive: [3] 95 % of control | [5] 101 % of control | [7] 93 % of control

Clc1ccc(C(c2ccc(Cl)cc2)c2ccccn2)cc1
inactive: [2] 92 % of control | [3] 98 % of control | [4] 97 % of control | [5] 95 % of control | [7] 97 % of control

C1CCN(CCC2CCCCN2)CC1 (stereo not given)
inactive: dose: 25.0 mg/kg/injection, schedule: Q04DX003 (ip), vehicle: saline 105 % of control | dose: 50.0 mg/kg/injection, schedule: Q04DX003 (ip), vehicle: saline 94 % of control | [17] 101 % of control and 92 % of control

CC(=O)Oc1cc2c(cc1[N+](=O)[O-])OCO2
inactive: dose: 100.0 mg/kg/injection, schedule: Q01DX001 (ip), vehicle: Klucel (hydroxypropylcellulose) (HPC) 104 % of control | [3] 94 % of control | dose: 200.0 mg/kg/injection, schedule: Q01DX001 (ip), vehicle: Klucel (hydroxypropylcellulose) (HPC) 94 % of control | [5] 93 % of control | dose: 400.0 mg/kg/injection, schedule: Q01DX001 (ip), vehicle: Klucel (hydroxypropylcellulose) (HPC) 98 % of control | [7] 105 % of control

CCCCCCCCCCCCCCN=C(N)N
inactive: dose: 50.0 mg/kg/injection, schedule: Q01DX001 (ip), vehicle: carboxymethylcellulose (CMC) 105 % of control | [23] 97 % of control | [24] 97 % of control | [25] 94 % of control

O=C(OCC(O)C(O)C(O)C(O)COC(=O)c1ccccc1)c1ccccc1 (stereo not given) (tested in a mixture with another compound)
inactive: [19] 103 % of control | [20] 100 % of control | [21] 90 % of control

O=C1c2ccccc2-c2ccc(N=C(NO)C(F)(F)F)cc21
inactive: [23] 118 % of control | [24] 98 % of control | [25] 98 % of control

Cc1ccc(/C(=C\c2ccccc2)C(=O)c2ccccc2)cc1
inactive: [2] 95 % of control | [3] 93 % of control | [4] 92 % of control | [5] 93 % of control | [6] 95 % of control | [7] 101 % of control

COC(C(=O)O)c1ccc(Cl)cc1 (stereo not given)
inactive: [15] 98 % of control | [16] 91 % of control | dose: 400.0 mg/kg/injection, schedule: Q04DX002 (ip), vehicle: saline with Tween-80 91 % of control

CC1(C)CN1C1=C(NC(=O)CCl)C(=O)c2ccccc2C1=O
inactive: [3] 87 % of control | [5] 94 % of control | [7] 91 % of control

CC1=C(O)c2ccccc2C(=O)C1=O
inactive: dose: 50.0 mg/kg/injection, schedule: Q01DX Z (ip), vehicle: other 93 % of control

Cc1ccc(S(=O)(=O)OC2CC3CCC2C3)cc1 (stereo not given)
inactive: dose: 100.0 mg/kg/injection, schedule: Q01DX009 (ip), vehicle: other 107 % of control | dose: 200.0 mg/kg/injection, schedule: Q01DX009 (ip), vehicle: other 100 % of control | dose: 400.0 mg/kg/injection, schedule: Q01DX009 (ip), vehicle: other 102 % of control

Nc1ccnc(Br)c1
inactive: dose: 100.0 mg/kg/injection, schedule: Q01DX009 (ip), vehicle: saline 103 % of control | [17] 109 % of control | dose: 200.0 mg/kg/injection, schedule: Q01DX009 (ip), vehicle: saline 100 % of control | [18] 107 % of control | dose: 400.0 mg/kg/injection, schedule: Q01DX009 (ip), vehicle: saline 101 % of control | [22] 112 % of control

O=C(Nc1ccccc1C(F)(F)F)N(CC(O)c1ccccc1)C1CCCCC1 (stereo not given)
inactive: [2] 106 % of control | [4] 95 % of control | [6] 100 % of control
